# From patent US20230203043A1, “NOVEL IMIDAZOPYRAZINE DERIVATIVES” (Hoffmann-La Roche Inc., priority 2020, published 2023)
# Counter-ions that a name gives are not always drawn. Like-named read-outs stand apart in the source and are kept apart here.
# Test system: Acinetobacter baumannii ATCC17961
# Test: Antimicrobial susceptibility testing: 90% growth inhibitory concentration (IC90) determination in Iso-Sensitest broth, OD600 growth
# Type: cell-based
# Outline: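 Growth inhibition is calculated during the logarithmic phase from OD600 readings taken every 20 minutes across 16 h at 35±2° C. Bacteria at ~5×10^(5) CFU/ml face twofold dilution series (e.g. 50 to 0.097 μM final).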
# [1] = Acinetobacter baumannii, ATCC17961, 16 h, read-out: A. baumannii ATCC 17961 IC90 (uM), strain ATCC 17961, OD600 growth over 16 h
# [2] = Acinetobacter baumannii, ATCC17961, 16 h, strain ATCC 17961, OD600 growth over 16 h, read-out: A. baumannii ATCC 17961 IC90
# [3] = strain ATCC 17961, OD600 growth over 16 h, read-out: A. baumannii ATCC 17961 IC90
IC90 [2] [µM],Compound,IC90 [1] [µM],also measured
,"CCc1cc(Nc2nccn3c(-c4cn(CC(F)F)nc4C(F)(F)F)cnc23)ccc1C(=O)NCCCNC(=O)[C@H](C)N [Example 628, (S)-N-(3-(2-aminopropanamido)propyl)-4-((3-(1-(2,2-difluoroethyl)-3-(trifluoromethyl)-1H-pyrazol-4-yl)imidazo[1,2-a]pyrazin-8-yl)amino)-2-ethylbenzamide formate]",0.195,
0.997,"O=C(c1ccc(Nc2nccn3c(-c4c[nH]nc4C(F)(F)F)cnc23)cc1Cl)N1CC2(CNC2)C1 [Example 111, [2-chloro-4-[[3-[3-(trifluoromethyl)-1H-pyrazol-4-yl]imidazo[1,2-a]pyrazin-8-yl]amino]phenyl]-(2,6-diazaspiro[3.3]heptan-2-yl)methanone]",,
0.422,"O=C(CN1CCN(C(=O)c2ccc(Nc3nccn4c(-c5cn(CC(F)F)nc5C(F)(F)F)cnc34)cc2Cl)CC1)N[C@@H]1CCNC1 [Example 601, (R)-2-(4-(2-chloro-4-((3-(1-(2,2-difluoroethyl)-3-(trifluoromethyl)-1H-pyrazol-4-yl)imidazo [1,2-a]pyrazin-8-yl)amino)benzoyl)piperazin-1-yl)-N-(pyrrolidin-3-yl) acetamide formate]",,
0.226,"CCc1cc(Nc2nccn3c(-c4cn(CC(F)F)nc4C(F)(F)F)cnc23)ccc1C(=O)NCC(=O)N[C@H]1CCNC1 [Example 638, 4-[[3-[1-(2,2-difluoroethyl)-3-(trifluoromethyl)pyrazol-4-yl]imidazo[1,2-a]pyrazin-8-yl]amino]-2-ethyl-N-[2-oxo-2-[[(3S)-pyrrolidin-3-yl]amino]ethyl] benzamide formate]",,
,"Cc1cc(Nc2nccn3c(-c4cn(CC#N)nc4C(F)(F)F)cnc23)ccc1C(=O)N1CCN(C(=O)N[C@@H]2CNC[C@H]2O)CC1 [Example 419, 4-[4-[[3-[1-(cyanomethyl)-3-(trifluoromethyl)pyrazol-4-yl]imidazo[1,2-a]pyrazin-8-yl]amino]-2-methylbenzoyl]-N-[(3R,4R)-4-hydroxypyrrolidin-3-yl]piperazine-1-carboxamide formate]",0.654,
,"CCc1cc(Nc2nccn3c(-c4cn(CC(F)(F)F)nc4C(F)(F)F)cnc23)ccc1C(=O)NCCOCCN [Example 276, N-[2-(2-aminoethoxy)ethyl]-2-ethyl-4-[[3-[1-(2,2,2-trifluoroethyl)-3-(trifluoromethyl)pyrazol-4-yl]imidazo[1,2-a]pyrazin-8-yl]amino]benzamide formate]",0.178,
0.532,"CCc1cc(Nc2nccn3c(-c4cn(CC(F)F)nc4C(F)F)cnc23)ccc1C(=O)N1CCN(C(=O)[C@H]2C[C@H](N)C2)CC1 [Example 743, (4-((1r,3r)-3-aminocyclobutane-1-carbonyl)piperazin-1-yl)(4-((3-(1-(2,2-difluoroethyl)-3-(difluoromethyl)-1H-pyrazol-4-yl)imidazo[1,2-a]pyrazin-8-yl)amino)-2-ethylphenyl) methanone]",,
,"CCc1cc(Nc2nccn3c(-c4c[nH]nc4C(F)(F)F)cnc23)ccc1C(=O)N[C@@H](C)CN [Example 349, N-[(2S)-1-aminopropan-2-yl]-2-ethyl-4-[[3-[3-(trifluoromethyl)-1H-pyrazol-4-yl]imidazo[1,2-a]pyrazin-8-yl]amino]benzamide formate]",1.63,
,"Cc1cnc(Cn2cc(-c3cnc4c(Nc5ccc(C(=O)N6CCNCC6)c(Cl)c5)nccn34)c(C(F)(F)F)n2)nc1 [Example 160, [2-chloro-4-[[3-[1-[(5-methylpyrimidin-2-yl)methyl]-3-(trifluoromethyl)pyrazol-4-yl]imidazo[1,2-a]pyrazin-8-yl]amino]phenyl]-piperazin-1-ylmethanone formate]",0.63,
0.226,"CCc1cc(Nc2nccn3c(-c4cn(CC#N)nc4C(F)(F)F)cnc23)ccc1C(=O)NCCNC(=O)[C@@H]1C[C@@H](O)CN1 [Example 637, (2S,4R)-N-(2-(4-((3-(1-(cyanomethyl)-3-(trifluoromethyl)-1H-pyrazol-4-yl)imidazo[1,2-a]pyrazin-8-yl)amino)-2-ethylbenzamido)ethyl)-4-hydroxypyrrolidine-2-carboxamide]",,
0.23,"NCCOCCNC(=O)c1ccc(Nc2nccn3c(-c4cn(CC5CC5)nc4C(F)(F)F)cnc23)cc1F [Example 811, N-(2-(2-aminoethoxy)ethyl)-4-((3-(1-(cyclopropyl-methyl)-3-(trifluoromethyl)-1H-pyrazol-4-yl)imidazo[1,2-a]pyrazin-8-yl)amino)-2-fluorobenzamide hydrochloride]",,
0.313,"CCc1cc(Nc2nccn3c(-c4c[nH]nc4C(F)(F)F)cnc23)ccc1C(=O)NCCOCCN1CCCC1 [Example 672, 2-ethyl-N-(2-(2-(pyrrolidin-1-yl)ethoxy)ethyl)-4-((3-(3-(trifluoromethyl)-1H-pyrazol-4-yl)imidazo[1,2-a]pyrazin-8-yl)amino)benzamide]",,
,"CC#CCn1cc(-c2cnc3c(Nc4ccc(C(=O)NCC(=O)NCCN)c(Cl)c4)nccn23)c(C(F)(F)F)n1 [Example 89, N-[2-(2-aminoethylamino)-2-oxoethyl]-4-[[3-[1-but-2-ynyl-3-(trifluoromethyl)pyrazol-4-yl]imidazo[1,2-a]pyrazin-8-yl]amino]-2-chlorobenzamide formate]",0.573,
0.25,"N[C@@H]1CC[C@H](C(=O)N2CCN(C(=O)c3ccc(Nc4nccn5c(-c6cn(CC(F)F)nc6C(F)(F)F)cnc45)cc3F)CC2)C1 [Example 806, (4-((1S,3R)-3-aminocyclopentane-1-carbonyl)piperazin-1-yl)(4-((3-(1-(2,2-difluoroethyl)-3-(trifluoromethyl)-1H-pyrazol-4-yl)imidazo[1,2-α]pyrazin-8-yl)amino)-2-fluorophenyl)methanone hydrochloride]",,
0.121,"CNC(=O)c1ccc(Nc2nccn3c(-c4cn(CC(F)F)nc4C(F)(F)F)cnc23)cc1Cl [Example 124, 2-chloro-4-[[3-[1-(2,2-difluoroethyl)-3-(trifluoromethyl)pyrazol-4-yl]imidazo[1,2-a]pyrazin-8-yl]amino]-N-methylbenzamide]",,
,"CCc1cc(Nc2nccn3c(-c4cn(CC(F)F)nc4C(F)(F)F)cnc23)ccc1C(=O)NC1CNC1 [Example 565, N-(azetidin-3-yl)-4-((3-(1-(2,2-difluoroethyl)-3-(trifluoromethyl)-1H-pyrazol-4-yl)imidazo[1,2-a]pyrazin-8-yl)amino)-2-ethylbenzamide formate]",0.188,
,"C[C@@H](O)CNC(=O)c1ccc(Nc2nccn3c(-c4cn(CC#N)nc4C(F)(F)F)cnc23)cc1Cl [Example 237, 2-chloro-4-[[3-[1-(cyanomethyl)-3-(trifluoromethyl)pyrazol-4-yl]imidazo[1,2-a]pyrazin-8-yl]amino]-N-[(2R)-2-hydroxypropyl] benzamide]",,IC90 [3]: 0.196 µM
,"O=C(NCC1(O)CNC1)N1CCN(C(=O)c2ccc(Nc3nccn4c(-c5cn(CC(F)F)nc5C(F)(F)F)cnc34)cc2Cl)CC1 [Example 580, 4-(2-chloro-4-((3-(1-(2,2-difluoroethyl)-3-(trifluoromethyl)-1H-pyrazol-4-yl)imidazo[1,2-a]pyrazin-8-yl)amino)benzoyl)-N-((3-hydroxyazetidin-3-yl)methyl)piperazine-1-carboxamide formate]",0.322,
,"CCc1cc(Nc2nccn3c(-c4cn(CC#N)nc4C(F)(F)F)cnc23)ccc1C(=O)NCCCNC(=O)[C@H](C)N [Example 794, (S)-N-(3-(2-aminopropanamido)propyl)-4-((3-(1-(cyanomethyl)-3-(trifluoromethyl)-1H-pyrazol-4-yl)imidazo[1,2-a]pyrazin-8-yl)amino)-2-ethylbenzamide formate]",2.2,
0.18,"N#CCn1cc(-c2cnc3c(Nc4ccc(C(=O)NCCNCC(=O)NCCCN)c(Cl)c4)nccn23)c(C(F)(F)F)n1 [Example 819, N-(2-((2-((3-aminopropyl)amino)-2-oxoethyl)amino)ethyl)-2-chloro-4-((3-(1-(cyanomethyl)-3-(trifluoromethyl)-1H-pyrazol-4-yl)imidazo[1,2-a]pyrazin-8-yl)amino) benzamide formate]",,
0.279,"CCc1cc(Nc2nccn3c(-c4cn(C5CCC5)nc4C(F)(F)F)cnc23)ccc1C(=O)NCCOCCN1CCOCC1 [Example 661, 4-((3-(1-cyclobutyl-3-(trifluoromethyl)-1H-pyrazol-4-yl)imidazo[1,2-a]pyrazin-8-yl)amino)-2-ethyl-N-(2-(2-morpholinoethoxy)ethyl) benzamide formate]",,
0.246,"CCc1cc(Nc2nccn3c(-c4cn(CC(F)F)nc4C(F)(F)F)cnc23)ccc1C(=O)NCCCNC(=O)[C@H]1C[C@@H](N)C1 [Example 541, N-(3-((1s,3s)-3-aminocyclobutane-1-carboxamido)propyl)-4-((3-(1-(2,2-difluoroethyl)-3-(trifluoromethyl)-1H-pyrazol-4-yl)imidazo[1,2-a]pyrazin-8-yl)amino)-2-ethylbenzamide formate]",,
0.303,"CNC(=O)c1ccc(Nc2nccn3c(-c4cn(CCCC#N)nc4C(F)(F)F)cnc23)cc1Cl [Example 359, 2-chloro-4-[[3-[1-(3-cyanopropyl)-3-(trifluoromethyl)pyrazol-4-yl]imidazo[1,2-a]pyrazin-8-yl]amino]-N-methylbenzamide]",,
,"Cc1cc(Nc2nccn3c(-c4c[nH]nc4C(F)(F)F)cnc23)ccc1C(=O)N1CCN(C(=O)N[C@@H]2CNC[C@H]2O)CC1 [Example 457, formic acid, N-[(3R,4R)-4-hydroxypyrrolidin-3-yl]-4-[2-methyl-4-[[3-[3-(trifluoromethyl)-1H-pyrazol-4-yl]imidazo[1,2-a]pyrazin-8-yl]amino]benzoyl]piperazine-1-carboxamide]",,IC90 [3]: 0.442 µM
1.13,"NCCCNC(=O)c1ccc(Nc2nccn3c(-c4c[nH]nc4C(F)(F)F)cnc23)cc1Cl [Example 364, N-(3-aminopropyl)-2-chloro-4-[[3-[3-(trifluoromethyl)-1H-pyrazol-4-yl]imidazo[1,2-a]pyrazin-8-yl]amino]benzamide]",,
